Literature values, collected in paper PMC2602858 (Cancer epidemiology, biomarkers & prevention : a …, 2008).

Key:
[1] = humans, plasma
women = details: I3C 200 and 400 mg twice daily for 4 weeks
CYP1A2 = details: I3C 400 mg twice daily, four weeks
[2] = system: urinary 2-hydroxyestrone: 16α-hydroxyestrone ratio; details: four weeks

OCc1c[nH]c2ccccc12 [I3C, indole-3-carbinol]
circulating products detected after oral I3C [1]: the only detectable circulating product was DIM | adverse effects (women): no adverse effects were reported or observed | effect on CYP1A2 (CYP1A2): marked induction | change of estrone hydroxylation ratio ([2]; I3C 200 mg twice daily): change in the estrone hydroxylation ratio was obtained | change of urinary 2-hydroxyestrone: 16α-hydroxyestrone ratio ([2]; I3C 400 mg twice daily): doubling
